Measurements from US20040219238A1, “Remedies” (priority 2001, published 2004).
Marks after values point to notes of the source that are not given here.

Columns and labels:
NGF [1] = experiment: NGF content in rat tissues after intraperitoneal administration of xanthohumol (enzyme immunoassay); type: in vivo, rat (SD); settings: excised 4 hours after administration on third day, average ± standard error
Description: (§1) (2) Male SD rats were purchased from Japan SLC, Inc., and used for an experiment from 7-week old after preliminary rearing. Xanthohumol described in Example 1 was suspended in distilled water, and the rats were subjected to forced oral administration of the suspension at a ratio of 3 and 10 mg of xanthohumol respectively per 1 kg of body weight. In addition, the suspension was intraperitoneally administered at a ratio of 1, 3 or 10 mg of xanthohumol. A control group was administered with distilled water in the same manner as above. In either group, four rats were administered once a day for consecutive days. In the case of the forced oral administration, the submandibular gland and the brain were excised on the fifth day from the beginning of administration. In the case of the intraperitoneal administration, ischiadic nerve and gastrocneminal muscle were excised at 4 hours after the end of administration on the third day. The excised tissues were homogenized and centrifuged, and the NGF contents in the supematant were determined by enzyme immunoassay method (manufactured by Roche).
(§2) The numbers in the tables represent an average value ± standard error for the four cases. In addition, an asterisk * symbol means that the group has a significant difference at a significance level of 5% or less as compared to the control group according to Student-t test, and a triple asterisk *** symbol means that the group similarly has a significant difference at a significance level of 0.1% or less.

[2] = type: in vivo; settings: mouse, 1 g/kg in a single dose
Description: No toxicity is found even when the above-mentioned effective ingredient usable in the present invention is administered in an amount effective for the exhibition of its action.

[3] = Water maze test in rats with ibotenic acid-induced learning and memory disorder; type: in vivo, rat (Wistar); settings: forced oral 10 mg/kg once a day, average ± standard error, n=9
Description: Male Wistar rats were purchased from Japan SLC, Inc., and used for an experiment from 7-week old after preliminary rearing. Ibotenic acid was administered intracerebrally to cause a learning and memory disorder. Nine rats were used for each group, and administration was begun one week after the administration of ibotenic acid. Xanthohumol of Example 1 was suspended in distilled water, and the rats were subjected to forced oral administration with the suspension at a ratio of 10 mg of xanthohumol per 1 kg of body weight. A control group was administered with distilled water in the same manner as above. The rats were administered once a day for consecutive days. A water maze test was carried out on and after the seventh day from the beginning of the administration to evaluate ability of recognizing spaces and directions.
The water maze test method was carried out as follows. Water of about 22° C. was charged in a large-scaled water vessel. A platform was set at a height of 2 cm below the water level, and rats were made to enter into water. The rats in water swim around so as to escape from water and take refuge in the platform. The time period from entering into water to taking refuge in the platform was recorded. After taking the refuge, the rats were made to observe surrounding environments on the platform. […]

NGF [4] = experiment: NGF content in rat tissues after forced oral administration of xanthohumol (enzyme immunoassay); type: in vivo, rat (SD); settings: excised on fifth day, average ± standard error, n=4
Description: as §1, §2

[5] = intraperitoneal 1 mg/kg once a day
[6] = intraperitoneal 3 mg/kg once a day
[7] = intraperitoneal 10 mg/kg once a day
[8] = forced oral 10 mg/kg once a day

With `COc1cc(O)c(CC=C(C)C)c(O)c1C(=O)/C=C/c1ccc(O)cc1` [Xanthohumol, xanthohumol] the “NGF Content in Gastrocneminal Muscle of Rat” value (NGF [1]; [5]) was 48.0 ± 3.4 pg/g tissue, the “NGF Content in Ischiadic Nerve of Rat” value (NGF [1]; [5]) was 386.4 ± 30.1* pg/g tissue and the “NGF Content in Gastrocneminal Muscle of Rat” value (NGF [1]; [6]) was 53.9 ± 4.0 pg/g tissue. For the same compound, the “NGF Content in Ischiadic Nerve of Rat” value (NGF [1]; [6]) was 351.6 ± 26.8 pg/g tissue, the “NGF Content in Gastrocneminal Muscle of Rat” value (NGF [1]; [7]) was 56.8 ± 3.3 pg/g tissue and the “NGF Content in Ischiadic Nerve of Rat” value (NGF [1]; [7]) was 445.7 ± 59.1 pg/g tissue. For the same compound, the cases of deaths [2] was “no cases of deaths are found”, the “Time Period from entering water to taking refuge in the platform, First Trial” value ([3]; on and after seventh day) was 140.7 ± 14.7 s and the “Time Period from entering water to taking refuge in the platform, Second Trial” value ([3]; second trial on next day) was 71.3 ± 10.8 s. For the same compound, the “NGF Content in Brain of Rat” value (NGF [4]; forced oral 3 mg/kg once a day) was 508.2 ± 95.1 pg/g tissue, the “NGF Content in Submandibular Gland of Rat” value (NGF [4]; forced oral 3 mg/kg once a day) was 8.88 ± 0.98*** ng/g tissue and the “NGF Content in Brain of Rat” value (NGF [4]; [8]) was 524.9 ± 200.7 pg/g tissue. The “NGF Content in Submandibular Gland of Rat” value (NGF [4]; [8]) was 13.39 ± 0.65*** ng/g tissue.
